From patent US20260174692A1, “AEROSOL COMPOSITION” (UPyTher B.V., priority 2023, published 2026)
Each block holds one compound with its values, some of them ahead of it.

How the values were obtained:
[1] = In vitro release of TLR-agonists from hydrogel; format: physicochemical; conditions: 6 and 10 wt. % hydrogel formulations; ammonium carbonate buffer
Experimental: The TLR-agonist resiquimod (synonym R848) was loaded from a stock solution (50 mM in DMSO) to 1.27 mM in the hydrogel. The TLR-agonist telratolimod (synonym MEDI9197) was loaded from a stock solution (10 mM in DMSO) to 0.5 mM in the hydrogel.
The drug loaded solution (100 μL) was transferred to a Millicell insert, which was placed in a 24-wells plate filled with PBS pH 7.4 (700 μL). At set time points the PBS was refreshed and the removed PBS was analyzed for R848 content UV absorbance at 320 nm. For MEDI9197, PBS was substituted for a volatile ammonium carbonate buffer and a HPLC-MS method was used. Release experiments were performed with n=3.

[2] = cited from earlier work
[3] = In vitro release of ipilimumab from hydrogel; format: physicochemical; conditions: 10 wt % UPy-PEG10k hydrogel; PBS pH 7.4
Experimental: The monoclonal antibody ipilimumab was loaded from a stock solution ([…] in PBS) to 3 μg/μl in the hydrogel. The drug loaded solution (50 μL) was transferred to 96-wells filter plate filled with PBS pH 7.4 (250 μL). At set time points the PBS was refreshed and the removed PBS was analyzed for antibody content with a Fortebio Octet interferometer.

release rate from hydrogel [1]: released slower than MMC
Compound: CCCCCCCCCCCCCCCCCC(=O)NCCCCOn1c(CCCC)nc2c(N)nc3ccccc3c21 [MEDI9197, telratolimod]

Compound: O=C1[O][Pt]2([NH][C@@H]3CCCC[C@H]3[NH]2)[O]C1=O [oxaliplatin]
Cmax, ePIPAC ([2]; administered by ePIPAC): 2670 to 3280 ng/mL | AUCmax, systemic ([2]; after systemic chemotherapy): 51400 to 118000 ng·h/mL | Cmax, systemic ([2]; after systemic chemotherapy): 1610 to 1920 ng/mL

Compound: ipilimumab: monoclonal antibody, checkpoint inhibitor (CTLA-4), loaded to 3 μg/μl in the hydrogel
duration of antibody release [3]: released for multiple weeks
